Melting point data for 122 compounds are collected here from a melting point compilation (Tetko et al.).

A word on the melting point: it is the temperature of the solid-liquid transition.

The compound `O=c1[nH][nH]c2ncccc12` displayed a melting point of 260 to 262 °C. As for `Cn1cc(C(=O)O)c(C(F)(F)F)c1`, the figure is 205 to 207 °C; as for `O=C(O)c1cccc(Sc2cccc(Br)c2)n1`, 113 to 115 °C; as for `Cc1cc(Cl)c(N)c(C(=O)O)c1`, 201 to 203 °C. To `CCN(CC)C(=O)c1sc2nc(CCl)[nH]c(=O)c2c1C` belongs 174 to 176 °C; to `Nc1[nH]nc(-c2ccsc2)c1-c1ccc2c(c1)OCO2`, 79 to 81 °C. As for `COc1ccc(CCNC(=O)c2ccccc2N)cc1`, the figure is 80 to 82 °C; as for `O=C1CC(c2ccc(Cl)cc2)N1` (configuration not stated), 90 to 92 °C; as for `NC(=O)c1cc2ccccc2c(Cl)n1`, 264 to 266 °C. The compound `Nc1sc2c(c1-c1nc3ccccc3s1)CCC2` displayed a melting point of 135 to 137 °C. To `O=C(O)CCC(=O)c1ccc(F)cc1F` belongs 113 to 115 °C.

In turn, `O=C(O)c1ccc(Cl)cc1-n1cccc1` gave a melting point of 142 to 144 °C. To `CC(C)(C)OC(=O)NCCNS(=O)(=O)c1ccc(N)cc1` belongs 130 to 132 °C; to `O=C(O)C1CC(=O)N(c2ccc(Cl)cc2)C1` (configuration not stated), 149 to 151 °C.

For `N#Cc1cncs1`, the melting point is 51 to 53 °C.

Turning to `COc1ccc([N+](=O)[O-])cc1CN`, the melting point lay in the range of 101 to 103 °C. To `NC(=O)CN1CCC(N)CC1` belongs 74 to 76 °C; to `Cc1csc(C(O)C(F)(F)F)n1` (configuration not stated), 122 to 124 °C; to `Nc1nc(-c2ccccc2OC(F)F)n[nH]1`, 188 to 190 °C.

As to `Cn1cnn(CC(=O)O)c1=O`, the melting point was 172 to 174 °C.

With `O=C(O)C=CC1CCOCC1`, the melting point was in the range of 134 to 136 °C. To `NCc1ccc(N2CCNC(=O)C2)cc1` belongs 189 to 191 °C. To `Nc1c(C(=O)O)ccc(Cl)c1Cl` belongs 235 to 237 °C; to `CC1(c2ccccc2F)NC(=O)NC1=O` (configuration not stated), 214 to 216 °C. To `CC(C)C(=O)N(C)Cc1ccc(C(=O)O)cc1` belongs 139 to 141 °C; to `Cc1ccnc(NN)c1`, 74 to 76 °C. In the case of `Cc1nc(C(=O)O)c2n1CCCC2`, the melting point is 225 to 227 °C. To `O=C(O)CCCNC(=O)c1ccsc1` belongs 235 to 237 °C; to `CN1CCN(C(=O)CC#N)CC1`, 118 to 120 °C. Compound `Cc1ccc(C)c(-c2n[nH]c(=O)c3ccccc23)c1` yielded a melting point of 216 to 218 °C. As for `Cc1nn(-c2cccc(F)c2)c(C(F)F)c1C(=O)O`, the figure is 187 to 189 °C; as for `c1cnn(CC2CCNCC2)c1`, 45 to 47 °C.

Turning to `O=C(O)c1cc(S(=O)(=O)Cl)ccc1F`, the melting point fell in the range of 107 to 109 °C. On to `CON=Cc1ccc(C(=O)O)cc1`, for which the melting point is 183 to 185 °C. As for `CN(C)C=CC(=O)C(F)(F)F`, the figure is 52 to 54 °C; as for `O=S(=O)(O)c1nc2ccc(Cl)cc2[nH]1`, 329 to 331 °C. As for `O=c1[nH]c(CCl)nc2sc(-c3ccccc3)cc12`, the figure is 286 to 288 °C; as for `C#CCNc1nccs1`, 65 to 67 °C; as for `O=C(O)c1ccc(COc2ccc(Cl)cc2)cc1`, 201 to 203 °C. As for `NC(=NO)C1CCCCC1`, the figure is 89 to 91 °C; as for `CC(Cl)C(=O)NC(C)c1ccc2c(c1)CCCC2` (configuration not stated), 106 to 108 °C; as for `O=Cc1ccc(-c2ccccc2)s1`, 90 to 92 °C. As to `O=C(O)c1cc(-c2ccc(Cl)cc2)nc2ccccc12`, the melting point was 244 to 246 °C.

In turn, `O=C(O)Cn1ccc(=O)[nH]c1=O` displayed a melting point of 279 to 281 °C.

Consider `CC(=O)NCCNC(=O)CCC(=O)O`, for which the melting point lay in the range of 166 to 168 °C. As for `CS(=O)(=O)c1ccc(F)c(N)c1`, the figure is 69 to 71 °C; as for `O=C(O)c1ccnc(N2CCCCC2)n1`, 99 to 101 °C. As for `O=C(O)c1cnc2c(c1)c(=O)[nH]c(=O)n2Cc1ccccc1`, the figure is 278 to 280 °C; as for `CC(=O)NNC(=O)CCl`, 157 to 159 °C. Regarding `O=C1COc2c(Cl)cccc2N1`, the melting point was 201 to 203 °C. To `Cc1cc(C(=O)O)nn1C(C)(C)C` belongs 143 to 145 °C; to `CCOc1ccc(S(=O)(=O)Cl)cc1-c1ccccc1`, 78 to 80 °C. As for `O=C(O)C1CCCN(C(=O)c2ccc(Cl)c(Cl)c2)C1` (configuration not stated), the figure is 163 to 165 °C; as for `Cc1cccc2c(=O)[nH]c(CC#N)nc12`, 233 to 235 °C; as for `CC(C)C(Br)C(=O)N1CCC(C(N)=O)CC1` (configuration not stated), 172 to 174 °C.

Compound `NC(c1nnn[nH]1)C1CC1` (configuration not stated) displayed a melting point of 233 to 235 °C. To `Cn1cc(C=NNC(N)=S)cn1` belongs 189 to 191 °C; to `O=C(O)Cn1nc(-c2cccs2)oc1=O`, 176 to 178 °C. As for `Cc1cccc(-c2nc(N)n[nH]2)c1[N+](=O)[O-]`, the figure is 242 to 244 °C; as for `O=C(O)CCCc1ccc(Br)s1`, 54 to 58 °C. To `O=C(O)C1=NN(c2ccccc2)C(=O)CC1` belongs 169 to 171 °C.

For the compound `NC(=O)c1ncn2c(C(=O)O)cc(-c3ccccc3)nc12`, the melting point lay within 254 to 256 °C. As for `COc1ccc(Cl)cc1NC(=O)CCN`, the figure is 66 to 68 °C.

On to `O=S(=O)(Nc1ccc2cn[nH]c2c1)c1ccc2c(c1)CCC2`, for which the melting point was in the range of 168 to 170 °C. On to `CC(C)(C)OC(=O)NCc1nnc(S)o1`, for which the melting point was in the range of 106 to 108 °C. To `COC(=O)c1sc(-c2cccc(Br)c2)cc1N` belongs 107 to 109 °C. As for `CC(=O)c1ccc(-n2cnnn2)cc1`, the figure is 174 to 176 °C; as for `Nc1ccn(Cc2ncccn2)n1`, 100 to 102 °C; as for `COC(=O)Cc1cc(=O)n(C(C)(C)C)[nH]1`, 110 to 112 °C. To `CC(C)S(=O)(=O)c1ccc(CCl)cc1` belongs 69 to 71 °C; to `Cn1nc(C(=O)O)ccc1=O`, 170 to 175 °C; to `CCOC(=O)c1c(C)oc(N)c1C#N`, 98 to 100 °C. `NS(=O)(=O)c1cccc(NC(=O)c2ccc(Cl)cc2)c1`: the melting point was in the range of 93 to 96 °C.

In turn, `CN1CC(=O)N(Cc2ccc(C(N)=O)cc2[N+](=O)[O-])C1=O` had a melting point of 219 to 221 °C. As for `O=C(O)CCSc1ccccc1`, the figure is 59 to 61 °C.

`Cc1c[nH]c(=O)n1-c1cccc(N)c1` yielded a melting point of 232 to 234 °C. On to `Cc1csc(SCc2c(C(=O)O)oc3ccccc23)n1`, for which the melting point was in the range of 177 to 179 °C. As for `O=C(O)c1ccc(-n2cncn2)c(F)c1`, the figure is 285 to 287 °C. To `Nc1nc2ccccc2n1CCCc1ccccc1` belongs 146 to 148 °C.

Consider `CCOC(=O)c1ccc(C#N)c(S)n1`, for which the melting point was 169 to 171 °C. As for `CCOc1ccccc1C(=O)NCC(=O)O`, the figure is 166 to 168 °C; as for `Cn1ccnc1COc1ccc(C(=O)O)cc1`, 235 to 237 °C. As for `Nc1ncc(Br)cc1S(N)(=O)=O`, the figure is 199 to 201 °C; as for `NC(=O)C1CCCN(C(=O)CCl)C1` (configuration not stated), 124 to 126 °C; as for `CC(Cl)C(=O)NCC(=O)Nc1ccc(F)c(F)c1F` (configuration not stated), 128 to 130 °C.

`Cc1ccc2[nH]cc(C=O)c2c1` registered a melting point of 142 to 144 °C. `Cc1c(C(=O)O)cc(Cl)cc1S(=O)(=O)Cl`: the melting point was 109 to 111 °C.

In turn, `O=C(O)c1cnc2scc(-c3ccccc3)n2c1=O` had a melting point of 244 to 246 °C. To `Nc1cc(Cl)cc(Br)c1OC(F)F` belongs 86 to 88 °C; to `Nc1cccnc1-n1cccn1`, 65 to 67 °C. On to `CC(C)CNC(=O)N1CCCC(C(=O)O)C1` (configuration not stated), for which the melting point was in the range of 106 to 108 °C. As for `Nc1cc(=O)[nH]c(S)n1`, the figure is 300 to 302 °C.

`CCOC(=O)c1c(N)sc(C(=O)N(C)C)c1C` showed a melting point of 118 to 122 °C.

The compound `O=C(O)c1csc(-c2ccccc2F)n1` displayed a melting point of 159 to 161 °C. The compound `Nc1ccccc1Cn1ccnc1` yielded a melting point of 81 to 83 °C.

With `Cc1ccc(Nc2nnc(S)s2)cc1`, the melting point lay within 219 to 221 °C. To `CC(N)c1ccc(OCC(N)=O)cc1` (configuration not stated) belongs 127 to 129 °C; to `CCS(=O)(=O)c1ccc(Br)cc1`, 53 to 55 °C. As for `CCn1cc(S(N)(=O)=O)cn1`, the figure is 86 to 88 °C; as for `CCOC(=O)c1cccnc1S`, 99 to 101 °C; as for `Cc1cc(-c2noc(CCC(=O)O)n2)ccc1F`, 124 to 126 °C. The compound `CCCCCCCCCCCCSc1nc2ccccc2c(=O)n1-c1ccccc1` registered a melting point of 62 to 64 °C. To `CCN(CC)C1=NC(=O)C(CC(=O)Nc2cccc(C(=O)O)c2)S1` (configuration not stated) belongs 236 to 238 °C. As for `CC(C)S(=O)(=O)C(C)C(=O)O` (configuration not stated), the figure is 96 to 98 °C; as for `Cn1cc(C#N)c(=O)n(C)c1=O`, 154 to 156 °C.

Compound `O=c1cc(I)cnn1Cc1ccccc1` showed a melting point of 156 to 158 °C. As for `O=C(O)c1csc(-c2ccc(O)cc2)n1`, the figure is 214 to 216 °C; as for `Cc1cc(=O)oc2ccc(OCC(=O)O)cc12`, 153 to 155 °C; as for `O=C(CCl)NC(c1ccc(F)cc1)c1cccs1` (configuration not stated), 124 to 126 °C.

Take `CC1=NN(Cc2ccc(Cl)cc2Cl)C(=O)C1`: the melting point lay within 128 to 130 °C. To `CNc1cccc2ncccc12` belongs 125 to 127 °C; to `O=C(Cc1nc2ccccc2n1C(F)F)c1cccs1`, 123 to 125 °C; to `O=C(CCCl)N1CCN(c2ncccn2)CC1`, 139 to 141 °C.

`O=C(O)CCCCCc1ccc(I)cc1` displayed a melting point of 65 to 67 °C. To `O=C(O)c1cc(Br)cc([N+](=O)[O-])c1Cl` belongs 226 to 228 °C; to `Cc1cccc(-c2nnc(N)[nH]2)n1`, 206 to 208 °C; to `CNS(=O)(=O)c1ccc(C(=O)O)cc1`, 246 to 250 °C. As to `Nc1ccc(S(=O)(=O)NCC(F)(F)F)cc1`, the melting point was 128 to 130 °C. To `N#Cc1cccnc1NCc1ccccc1Cl` belongs 111 to 113 °C. To `O=C(c1ccc(Cl)cc1)N1CCNCC1` belongs 80 to 82 °C; to `Cc1cc(C)cc(C(N)c2cccnc2)c1` (configuration not stated), 47 to 49 °C. Consider `O=Cc1ccc(-c2cccc(Br)c2)o1`, for which the melting point is 99 to 101 °C.
